Reference: PMC6287892, “Design, Synthesis, and Biological Evaluation of 3-(Imidazo[1,2-a]pyrazin-3-ylethynyl)-4-isopropyl-N-(3-((4-methylpiperazin-1-yl)methyl)-5-(trifluoromethyl)phenyl)benzamide as a Dual Inhibitor of Discoidin Domain Receptors 1 and 2” (Journal of Medicinal Chemistry, 2018)

What was measured:
[1] = Pharmacokinetic parameters in rats; type: in vivo; conditions: SD rats
Description: Male SD rats weighing 180–220 g (Southern China Medical University) were utilized for the studies. The protocol was approved by the Animal Care and Use Committee, GIBH. Animals were given standard animal chow and water ad libitum in a climate-controlled room (23 ± 1 °C, 30–70% relative humidity, a minimum of 10 exchanges of room air per hour, and a 12 h light–dark cycle) for 1 week prior to experiments. The compound was dissolved in a solution containing 2% DMSO, 4% ethanol, 4% castor oil, and 90% ddH2O. The pharmacokinetic properties of the SD rats (male) were determined following iv and oral administration. Animals were randomly distributed into two experimental groups (n = 3). […] After single administration, whole blood samples (100–200 μL) were obtained from the orbital venous plexus at the following time points after dosing: 5, 10, and 30 min and 1, 2, 3, 4, 6, 8, 11, and 24 h (po) or 2, 10, and 30 min and 1, 2, 3, 4, 6, 8, 11, and 24 h (iv). Whole blood samples were collected in heparinized tubes. The plasma fraction was immediately separated by centrifugation (8000 rpm, 6 min, 4 °C) and stored at −20 °C until LC-MS analysis. The rats were humanely euthanasia by carbon dioxide 24 h after the experiment without pain. The pharmacokinetics parameters were calculated by analyzing the compound concentrations in plasma samples using the pharmacokinetic software DAS.2.0.

Male C57BL/6 mice = test: Acute-toxicity assay in mice; type: in vivo; conditions: 200 or 400 mg/kg by gavage
Description: Male C57BL/6 mice weighing 18–20 g were randomly divided into three groups (n = 5 per group). Mice were gavage-administered 200 μL of the drug (at 200 or 400 mg/kg in physiological saline). Mice in the control group received 200 μL of physiological saline. After drug administration, body-weight changes were recorded for 7 days.

[2] = male, rat, plasma, iv (4 mg/kg)
[3] = male, rat, plasma, oral (20 mg/kg)

Structure (SMILES): CC(C)c1ccc(C(=O)Nc2cc(CN3CCN(C)CC3)cc(C(F)(F)F)c2)cc1C#Cc1cnc2cnccn12 [Compound 5n, 3-(Imidazo[1,2-a]pyrazin-3-ylethynyl)-4-isopropyl-N-(3-((4-methylpiperazin-1-yl)methyl)-5-(trifluoromethyl)phenyl)benzamide]
- BA ([1]; oral (20 mg/kg) vs iv (4 mg/kg)): 8.06%
- AUC(0-inf) [1, 2]: 798 ± 121 ng·h/mL
- Cmax [1, 2]: 1180 ± 150 ng/mL
- half-life [1, 2]: 2.12 ± 0.25 h
- clearance ([1]; male, rat, plasma, iv (4 mg/kg), read-out: CLz (converted)): 85 mL/min/kg
- AUC(0-inf) [1, 3]: 322 ± 106 ng·h/mL
- Cmax [1, 3]: 48.7 ± 18.2 ng/mL
- Tmax [1, 3]: 1.5 ± 1.3 h
- half-life [1, 3]: 2.08 ± 0.66 h
- tolerability (Male C57BL/6 mice): well-tolerated
- animal deaths and body-weight changes (Male C57BL/6 mice; 7 days): no animal deaths or obvious body-weight changes
